What was measured:
[1] = tested on: PC-3 xenograft bearing mice; design: AUC Kidneys: unit not given beside the values; settings: mouse, in vivo
GRPR = target: T1, GRPR (Homo sapiens, UniProt P30550); test: Receptor affinity and kinetics by LigandTracer on living PC-3 cells; format: binding
T1 construct: host or cells: PC-3 (human prostate cancer cell line)
Protocol: Receptor affinity was measured using a LigandTracer yellow (Ridgeview Instruments AB, Uppsala, Sweden). For each measurement 3 million PC-3 cells were seeded in 100 mm dishes (Corning St. Oneonta, N.Y., USA) the day before the experiment. Three concentrations for each radioligand were tested (1, 3 and 5 nM) in order to determine the association values. After reaching plateau, the media containing the radioligands were removed, fresh complete media were introduced in the plates and the dissociation phase was measured overnight.

[2] = tested on: PC-3 xenograft bearing mice; test: Biodistribution in PC-3 xenograft bearing mice; settings: mouse, in vivo
Protocol: The biodistribution profile for the four radioligands was determined in female Balb/c nu/nu mice. All the animals were subcutaneously implanted with a suspension of 8 × 10^6 PC-3 cells in the right hind leg. After approximately 3–4 weeks, tumours were developed and animals were randomized in groups of four (with the exception of the Block groups comprising instead 3 animals). For each radioligand 3 groups were used, namely, 4 h, 23 h pi and 4 h Block. Each animal received 2.82 mg of sacubitril (in the form of 12 mg of an Entresto pill suspension) per os and after 30 min, a bolus iv injection of 100–110 kBq of [^177Lu]Lu-peptide (corresponding to 100 pmol total peptide). Animals were euthanized at the predetermined time points and tissues of interest and xenografts were collected, weighted and their activity content was measured in the gamma counter. […] Statistical analysis was performed using GraphPad Prism 10 and a two-way ANOVA with Tuckey’s post hock analysis. Area under curve for kidneys and tumours was estimated by fitting a one-phase decay model and calculating the area under the resulting equation.

[3] = 5 min pi, ref Nock et al. [2017]; cited from earlier work
From the text: (§1) In comparison with [^177Lu]Lu-NeoBomb1 (Dalm et al. [2017]; Nock et al. [2017]), [^177Lu]Lu-AU-SAR-M1 utilizes a different chelator (DOTAGA for AU-SAR-M1 and DOTA for NeoBomb1).

[4] = tested on: PC-3 xenograft bearing mice; settings: 4 h pi, ref Dalm et al. [2017], cited from earlier work
From the text: as §1

tumours = settings: ref Dumont et al. [2013], cited from earlier work
From the text: For [^177Lu]Lu-RM2 (Dumont et al. [2013]), the reported dose per animal was 250 pmol peptide corresponding to 4.63 MBq.

[5] = living PC-3 cells, 1:1 model used (footnote)

T1 sequence (P30550 whole entry): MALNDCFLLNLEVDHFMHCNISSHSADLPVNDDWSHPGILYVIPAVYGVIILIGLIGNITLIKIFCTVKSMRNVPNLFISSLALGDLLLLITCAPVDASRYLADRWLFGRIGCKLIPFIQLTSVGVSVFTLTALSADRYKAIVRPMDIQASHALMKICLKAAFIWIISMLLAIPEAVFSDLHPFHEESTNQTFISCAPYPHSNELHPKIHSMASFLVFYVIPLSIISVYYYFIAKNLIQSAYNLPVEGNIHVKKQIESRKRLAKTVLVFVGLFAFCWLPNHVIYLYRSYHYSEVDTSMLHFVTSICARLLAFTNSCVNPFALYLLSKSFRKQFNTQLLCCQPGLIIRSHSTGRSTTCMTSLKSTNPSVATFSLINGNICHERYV

Compound: CC(C)C[C@H](NC(=O)C[C@H](O)[C@H](CC(C)C)NC(=O)[C@H](Cc1c[nH]cn1)NC(=O)CN(C)C(=O)[C@@H](NC(=O)[C@H](C)NC(=O)[C@H](Cc1c[nH]c2ccccc12)NC(=O)[C@H](CCC(N)=O)NC(=O)[C@@H](Cc1ccccc1)NC(=O)CN1CCC(NC(=O)COCCOCCNC(=O)CCC(C(=O)O)N2CCN(CC(=O)O)CCN(CC(=O)O)CCN(CC(=O)O)CC2)CC1)C(C)C)C(N)=O (some centres unmarked) [[^177Lu]Lu-AU-RM26-M2, DOTAGA-PEG2-Pip-[NMe-Gly^11]RM26, metal not drawn]
- AUC Kidneys [1]: 56
- AUC Tumour [1]: 62

Compound: CCNC(=O)[C@H](CC(C)C)NC(=O)[C@H](Cc1c[nH]cn1)NC(=O)CN(C)C(=O)[C@@H](NC(=O)[C@H](C)NC(=O)[C@H](Cc1c[nH]c2ccccc12)NC(=O)[C@H](CCC(N)=O)NC(=O)[C@@H](Cc1ccccc1)NC(=O)COCC(=O)Nc1ccc(CNC(=O)CCC(C(=O)O)N2CCN(CC(=O)O)CCN(CC(=O)O)CCN(CC(=O)O)CC2)cc1)C(C)C (some centres unmarked) [[^177Lu]Lu-AU-SAR-M1, DOTAGA-AMA-DIG-SAR, metal not drawn]
- ka1 (GRPR; living PC-3 cells, 1, 3 and 5 nM, 1:2 model): 65700 M⁻¹ s⁻¹
- ka2 (GRPR; living PC-3 cells, 1:2 model): 614000 M⁻¹ s⁻¹
- kd1 (GRPR; living PC-3 cells, 1:2 model): 1.76 × 10^–6 s^−1
- kd2 (GRPR; living PC-3 cells, 1:2 model): 7.43 × 10^–4 s^−1
- AUC Kidneys [1]: 45
- AUC Tumour [1]: 242
- AUC ratio Tumour/Kidneys [1]: 5.4
- tumour-to-kidney ratio for the estimated AUC, times better than the next candidate [2]: 1.4 times

Compound: CCNC(=O)[C@H](CC(C)C)NC(=O)[C@H](Cc1c[nH]cn1)NC(=O)CN(C)C(=O)[C@@H](NC(=O)[C@H](C)NC(=O)[C@H](Cc1c[nH]c2ccccc12)NC(=O)[C@H](CCC(N)=O)NC(=O)[C@@H](Cc1ccccc1)NC(=O)COCC(=O)Nc1ccc(CNC(=O)[C@H](CCCNC(=N)N)NC(=O)CCC(C(=O)O)N2CCN(CC(=O)O)CCN(CC(=O)O)CCN(CC(=O)O)CC2)cc1)C(C)C (some centres unmarked) [[^177Lu]Lu-AU-SAR-M2, DOTAGA-Arg-AMA-DIG-SAR, metal not drawn]
- ka1 (GRPR; [5]): 90900 M⁻¹ s⁻¹
- kd1 (GRPR; [5]): 6.44 × 10^–7 s^−1
- AUC Kidneys [1]: 68
- AUC Tumour [1]: 259
- AUC ratio Tumour/Kidneys [1]: 3.8
- Tumour-to-Kidneys AUC ratio, fold higher than [^177Lu]Lu-AU-RM26-M4 [1]: 1.6 fold
- Tumour-to-Kidneys AUC ratio, fold higher than [^177Lu]Lu-AU-SAR-M1 [1]: 1.4 fold

Compound: DOTA-AMA-DIG-DPhe-Gln-Trp-Ala-Val-Gly-His-NHCH[(CH2-CH(CH3)2]2 [[^177Lu]Lu-NeoBomb1, Lu-177-based GRPR-antagonist already tested in patients]
- intact peptide detected in mice circulation [3]: 95%
- tumour values ([4]; PC-3 xenograft bearing mice, 200 pmol – 1 MBq): 17.9 ± 3.3 %IA/g
- kidneys uptake [4]: 2.5%

Compound: DOTA-4-amino-1-carboxymethyl-piperidine-DPhe-Gln-Trp-Ala-Val-Gly-His-Sta-Leu-NH2 [[^177Lu]Lu-RM2]
- tumour uptake (tumours; 4 h pi, 250 pmol peptide, 4.63 MBq): 10.97 ± 0.99 %IA/g
- activity uptake in pancreas (tumours; 4 h pi): 0.70 ± 0.12 %IA/g
- activity remaining in the tumours (tumours; 24 h pi relative to 4 h pi): approximately 50%

— paper PMC12314183, “RM2 and DB15 analogues bearing [^177Lu]Lu-DOTAGA via different linkers, as radiotherapeutics: a head-to-head comparative study” (EJNMMI Radiopharmacy and Chemistry, 2025)
